Laboratory results published in patent US4922021A, “New alkylene diamine derivatives” (BASF Aktiensellschaft, priority 1981, dated 1990).

How the values were obtained:
[1] = tested on: aconitin-induced arrhythmia; conditions: mouse, in vivo, po, 100 mg/kg
[2] = tested on: aconitin-induced arrhythmia; test: animal or person; conditions: Mus musculus, ip, read-out: Delay in time of appearance of arrhythmia
[3] = tested on: ouabain-induced arrhythmia; test: Ouabain-induced arrhythmia in anaesthetized dogs; type: in vivo; conditions: i.v.; for Complete suspension, number of cases: protection > 30 min = complete
Method: Anaesthetized dogs of both sexes were treated intravenously with an infusion of 60 /ug/kg of ouabain to provoke arrhythmia, and the arrhythmic state was maintained with an ouabain dose 60 times less than the initial. In this way a ventricular tachycardia or tachyarrhythmia lasting for more than 180 minutes was provoked. The compounds were tested during this period. The period of recovered normal sinus rhythm was recorded, and when a compound exerted protective effect for more than 30 minutes, this fact was regarded as complete protection. The tests were performed essentially according to the method of Piascik et al. [Can.
Examination of the anti-arrhythmic effect in dogs anaesthetized with a 30
of pentobarbital sodium and treated with ouabain

[4] = tested on: barium chloride-induced arrhythmia; test: Barium chloride-induced arrhythmia in awake rabbits; type: in vivo; conditions: i.v., 2 mg/kg; arrhythmia suspended for at least 3 minutes
Method: The compounds to be tested were administered intravenously to the animals 3 minutes after treating them with barium chloride, and the effect was recorded. It was regarded as a positive protecting effect when the compound suspended the arrhythmic condition for at least 3 minutes.

[5] = tested on: fibrillation threshold of the heart; test: Determination of the fibrillation threshold in anaesthetized cats; type: in vivo; conditions: i.v.
Source text: The chests of the cats were opened under chloralose-urethane anaesthesia a bipolar stimulating electrode was fixed onto the heart, and the heart was stimulated electrically with a frequency of 20 Hz, under continuously increasing current strength, until a fibrillo-flattern could be observed. This current strength was regarded as the fibrillation threshold of the animal.

| SMILES | Delay in the appearance time of arrhythmia [1] | change in vivo at 10 mg/kg [2] | change in vivo at 25 mg/kg [2] | change in vivo at 50 mg/kg [2] | change in vivo at 75 mg/kg [2] | Average time of partial suspension ([3]; 0.5 mg/kg) | Complete suspension, number of cases ([3]; 0.5 mg/kg) | Average time of partial suspension ([3]; 1.0 mg/kg) | Complete suspension, number of cases ([3]; 1.0 mg/kg) | Average time of partial suspension ([3]; 2.0 mg/kg) | Complete suspension, number of cases ([3]; 2.0 mg/kg) | Average time of partial suspension ([3]; 4.0 mg/kg) | Complete suspension, number of cases ([3]; 4.0 mg/kg) | Average time of partial suspension ([3]; 8.0 mg/kg) | Complete suspension, number of cases ([3]; 8.0 mg/kg) | Protecting effect, number of animals [4] | Effect on the fibrillation threshold ([5]; 0.5 mg/kg) | Effect on the fibrillation threshold ([5]; 1.0 mg/kg) | Effect on the fibrillation threshold ([5]; 2.0 mg/kg) | Effect on the fibrillation threshold ([5]; 4.0 mg/kg) | also measured |
| --- | --- | --- | --- | --- | --- | --- | --- | --- | --- | --- | --- | --- | --- | --- | --- | --- | --- | --- | --- | --- | --- |
| CCC(N)CNc1c(C)cccc1C (stereo not shown) [1-(2,6-dimethylphenyl-amino)-2-amino-butane] | +33.0% | 3% | 40.8% | 104% | 149% | – | – | – | – | – | – | – | – | – | – | – | – | – | – | – | – |
| Cc1cccc(C)c1NCCC(C)N (stereo not shown) [1-(2,6-dimethylphenyl-amino)-3-amino-butane] | +84.0% | 0% | 48% | 87% | 135% | 0.3 min | 1/16 | 0.8 min | 1/15 | 3.7 min | 2/15 | 5.4 min | 7/14 | 6.5 min | 3/5 | 5/10 | +2.3% | +3.0% | +16.5% | +52.9% | – |
| Cc1cccc(C)c1N(C)CC(C)N(C)C (stereo not shown) [1-[N-methyl-N-(2,6-dimethylphenyl)-amino]-2-dimethylamino-propane] | – | – | – | 78% | – | – | – | – | – | – | – | – | – | – | – | – | – | – | – | – | – |
| CCN(CC)CC(=O)Nc1c(C)cccc1C.Cl [N-(diethylamino-acetyl)-2,6-dimethylaniline hydrochloride, reference compound] | +38.0% | 16.2% | 33.7% | – | – | 0.5 min | 0/15 | 1.6 min | 0/15 | 2.5 min | 1/15 | 2.5 min | 3/14 | 7.5 min | 2/11 | 2/10 | 0% | +2.0% | +17.7% | +39.1% | change in vivo at 5 mg/kg [2]: 1%; change in vivo at 40 mg/kg [2]: 70.1% |
